Reference: patent US11530244B2, “Cyclic polypeptides for PCSK9 inhibition” (priority 2018, dated 2022)
Starred links: 1 amine or outer side, 2 acyl side, 3 side chain; linkers in the order of their positions; H or OH if unused. Positions of bridges follow the written chain, without caps; N, C: chain ends. Non-standard residues stand in square brackets, D forms with d. Residues, ends and D or L forms follow the SMILES beside them. NMeTrp(1-Me) = CN[C@@H](Cc1cn(C)c2ccccc12)C(=O)O; Trp(5-F) = N[C@@H](Cc1c[nH]c2ccc(F)cc12)C(=O)O; mXylylene(5-F) = Fc1cc(C[*:1])cc(C[*:2])c1; Pro(cis-4-F) = O=C(O)[C@@H]1C[C@H](F)CN1; X4 = O=C(CCSCc1cccc(CSCCN[*:1])c1)[*:2]; 2Nal = N[C@@H](Cc1ccc2ccccc2c1)C(=O)O; mXylylene = c1cc(C[*:1])cc(C[*:2])c1; AEF = NCCOc1ccc(C[C@H](N)C(=O)O)cc1; NMeT = CN[C@H](C(=O)O)[C@@H](C)O; aThr = C[C@H](O)[C@H](N)C(=O)O; X59 = Fc1ccc(C[*:2])cc1C[*:1]; dNMeL = CN[C@H](CC(C)C)C(=O)O; αMeP = C[C@@]1(C(=O)O)CCCN1; Nva = CCC[C@H](N)C(=O)O; Mpa = O=C(O)CCS

Target: PCSK9 (Homo sapiens (Human), UniProt Q8NBP7)
Sequence (Q8NBP7 153-692): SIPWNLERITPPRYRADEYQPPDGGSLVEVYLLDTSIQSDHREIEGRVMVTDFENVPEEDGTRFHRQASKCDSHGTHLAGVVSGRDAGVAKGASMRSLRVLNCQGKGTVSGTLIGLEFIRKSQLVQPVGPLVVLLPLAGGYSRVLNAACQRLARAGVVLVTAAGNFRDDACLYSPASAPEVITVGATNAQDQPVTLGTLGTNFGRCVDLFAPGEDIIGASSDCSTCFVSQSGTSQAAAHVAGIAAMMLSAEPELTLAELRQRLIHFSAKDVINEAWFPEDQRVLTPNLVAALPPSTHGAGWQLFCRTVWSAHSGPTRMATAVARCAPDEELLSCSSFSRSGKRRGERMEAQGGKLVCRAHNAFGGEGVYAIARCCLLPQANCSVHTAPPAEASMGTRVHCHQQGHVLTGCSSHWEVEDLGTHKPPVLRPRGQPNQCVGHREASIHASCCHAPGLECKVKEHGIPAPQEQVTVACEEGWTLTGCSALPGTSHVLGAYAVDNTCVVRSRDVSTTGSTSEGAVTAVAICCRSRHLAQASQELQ
Assay: PCSK9 Alexa FRET Standard assay (displacement of AlexaFluor647 tagged cyclic peptide Reagent A)
Format: binding
Conditions: PCSK9 Alexa FRET Standard assay, 0.5 nM PCSK9, 20 nM AF cyclic peptide Reagent A; read-out: IC50
Experimental: A solution containing 1 nM biotinylated PCSK9+2.5 nM Lance Streptavidin Europium (Strep-Eu) was made in 50 mM HEPES pH 7.4, 0.15 M NaCl, 5 mM CaCl2), 0.01% BSA, and 0.01% Surfactant P20. A separate solution containing 40 nM of the AlexaFluor tagged cyclic peptide was made in the same buffer system. An Echo was used to transfer 0.750 ul of compound to an assay plate followed by the addition of 15 ul of PCSK9+Stept-Eu and 15 ul of AF peptide. The final assay volume was 30.750 ul containing 0.5 nM PCSK9, 1.25 nM Strep-Eu, and 20 nM AF cyclic peptide. The reaction was incubated at room temperature for at least two hours prior to fluorescence measurements using an Envision Multilabel Reader. IC50 values were determined by fitting data to a sigmoidal dose-response curve using nonlinear regression. Ki was then calculated from the IC50 and the KD of AF cyclic peptide. Counts (B-counts) of the europium-labeled PCSK9 were followed to observe if compounds were […]. A fall off of the B-counts likely indicated a false positive of inhibition. Data from this procedure was reported as “A=‘numerical value’ (nanomolar)”

Row | IC50 | Compound
1 | 21 to 50 µM | CC[C@H](C)[C@@H]1NC(=O)[C@@H]2CCCN2C(=O)[C@H](Cc2c[nH]c3ccc(F)cc23)NC(=O)[C@H](Cc2c[nH]c3ccc(F)cc23)NC(=O)CNC(=O)[C@H](CCCCN)NC(=O)CCSCc2cccc(c2)CSC[C@@H](C(N)=O)NC(=O)[C@]2(C)CCCN2C(=O)[C@H](Cc2ccc(O)cc2)NC1=O [Compound 006] ([Mpa]KG[Trp(5-F)][Trp(5-F)]PIY[αMeP]C-NH2; linker 1-10 via mXylylene)
2 | 21 to 50 µM | CC[C@H](C)[C@@H]1NC(=O)[C@@H]2CCCN2C(=O)[C@H](Cc2c[nH]c3ccc(F)cc23)NC(=O)[C@H](Cc2c[nH]c3ccc(F)cc23)NC(=O)[C@@H](C)NC(=O)[C@H](CCCCN)NC(=O)CCSCc2cc(F)cc(c2)CSC[C@@H](C(N)=O)NC(=O)[C@]2(C)CCCN2C(=O)[C@H](Cc2ccc(OC)cc2)NC1=O [Compound 008] ([Mpa]K[dA][Trp(5-F)][Trp(5-F)]PIY(Me)[αMeP]C-NH2; linker 1-10 via mXylylene(5-F))
3 | 21 to 50 µM | COc1ccc(C[C@@H]2NC(=O)[C@H](C(C)C)NC(=O)[C@@H]3CCCN3C(=O)[C@H](Cc3c[nH]c4ccc(F)cc34)NC(=O)[C@H](Cc3c[nH]c4ccc(F)cc34)NC(=O)[C@@H](C)NC(=O)[C@H](CCCCN)NC(=O)CCSCc3cccc(c3)CSC[C@@H](C(N)=O)NC(=O)[C@]3(C)CCCN3C2=O)cc1 [Compound 009] ([Mpa]K[dA][Trp(5-F)][Trp(5-F)]PVY(Me)[αMeP]C-NH2; linker 1-10 via mXylylene)
4 | 21 to 50 µM | CCC[C@@H]1NC(=O)CCSCc2cccc(c2)CSC[C@@H](C(N)=O)NC(=O)[C@@H]2CCCN2C(=O)[C@H](Cc2ccc(OC)cc2)NC(=O)[C@H]([C@@H](C)OC)N(C)C(=O)[C@@H]2CCCN2C(=O)[C@H](Cc2cn(C)c3ccccc23)N(C)C(=O)[C@H](Cc2ccc3ccccc3c2)NC(=O)[C@@H](CC(C)C)N(C)C1=O [Compound 039] ([Mpa][Nva][dNMeL][2Nal][NMeTrp(1-Me)]P[NMeT](Me)Y(Me)PC-NH2; linker 1-10 via mXylylene)
5 | 21 to 50 µM | COc1ccc(C[C@@H]2NC(=O)[C@H]([C@@H](C)O)NC(=O)[C@@H]3CCCN3C(=O)[C@H](Cc3c[nH]c4ccc(F)cc34)NC(=O)[C@H](Cc3c[nH]c4ccc(F)cc34)NC(=O)[C@@H](C)NC(=O)[C@H](CCCCN)NC(=O)CCSCc3cc(F)cc(c3)CSC[C@@H](C(N)=O)NC(=O)[C@]3(C)CCCN3C2=O)cc1 [Compound 041] ([Mpa]K[dA][Trp(5-F)][Trp(5-F)]PTY(Me)[αMeP]C-NH2; linker 1-10 via mXylylene(5-F))
6 | 21 to 50 µM | COc1ccc(C[C@@H]2NC(=O)[C@H]([C@@H](C)O)NC(=O)[C@@H]3C[C@H](F)CN3C(=O)[C@H](Cc3c[nH]c4ccc(F)cc34)NC(=O)[C@H](Cc3c[nH]c4ccc(F)cc34)NC(=O)[C@@H](C)NC(=O)[C@H](NC(C)=O)CCC(=O)NCCOc3ccc(cc3)C[C@@H](C(N)=O)NC(=O)[C@]3(C)CCCN3C2=O)cc1 [Compound 056] (Ac-[dE][dA][Trp(5-F)][Trp(5-F)][Pro(cis-4-F)]TY(Me)[αMeP][AEF]-NH2; lactam 1-9)
7 | 21 to 50 µM | COc1ccc(C[C@@H]2NC(=O)[C@H]([C@@H](C)O)NC(=O)[C@@H]3CCCN3C(=O)[C@H](Cc3c[nH]c4ccc(F)cc34)NC(=O)[C@H](Cc3c[nH]c4ccc(F)cc34)NC(=O)[C@@H](C)NC(=O)[C@H](CCCCN)NC(=O)CCSCc3cc(ccc3F)CSC[C@@H](C(N)=O)NC(=O)[C@]3(C)CCCN3C2=O)cc1 [Compound 069] ([Mpa]K[dA][Trp(5-F)][Trp(5-F)]PTY(Me)[αMeP]C-NH2; linker 1-10 via X59)
8 | 21 to 50 µM | CO[C@@H](C)[C@@H]1NC(=O)[C@@H]2CCCN2C(=O)[C@H](Cc2c[nH]c3ccc(F)cc23)NC(=O)[C@H](Cc2c[nH]c3ccc(F)cc23)NC(=O)CNC(=O)[C@H](CCCCN)NC(=O)CCSCc2cccc(c2)CSCCNC(=O)[C@]2(C)CCCN2C(=O)[C@H](Cc2ccc(O)cc2)NC1=O [Compound 070] (cyclo(G[Trp(5-F)][Trp(5-F)]P[aThr](Me)Y[αMeP][X4]K))
9 | 21 to 50 µM | CO[C@@H](C)[C@@H]1NC(=O)[C@@H]2CCCN2C(=O)[C@H](Cc2c[nH]c3ccc(F)cc23)NC(=O)[C@H](Cc2c[nH]c3ccc(F)cc23)NC(=O)[C@@H](C)NC(=O)[C@H](CCCCN)NC(=O)CCSCc2cccc(c2)CSCCNC(=O)[C@]2(C)CCCN2C(=O)[C@H](Cc2ccc(O)cc2)NC1=O [Compound 071] (cyclo(K[dA][Trp(5-F)][Trp(5-F)]P[aThr](Me)Y[αMeP][X4]))
